≈ marks a conversion by molar mass, not a printed value. Residues, ends and D or L forms follow the SMILES beside them. *: point of attachment. Myristoyl = CCCCCCCCCCCCCC(=O)*; Lauroyl = CCCCCCCCCCCC(=O)*; Decanoyl = CCCCCCCCCC(=O)*
Tests used:
Staphylococcus aureus [1] = test: Antimicrobial activity against methicillin-resistant Staphylococcus aureus 113 after 18 hrs by broth microdilution method; assay type: functional
Bacillus subtilis = test: Antimicrobial activity against Bacillus subtilis ATCC 23857 after 18 hrs by broth microdilution method; assay type: functional
[2] = tested on: Staphylococcus epidermidis; test: Antimicrobial activity against Staphylococcus epidermidis ATCC 12228 after 18 hrs by broth microdilution method; assay type: functional
[3] = Therapeutic index, ratio of MHC for mouse RBC to geometric mean of peptide MIC for Staphylococcus epidermidis ATCC 12228; assay type: toxicity; settings: pooled result: one value given for 6 cell lines, strains, targets or settings, read-out: TI
Erythrocyte = test: Hemolytic activity against mouse erythrocytes measured after 1 hr; assay type: ADME, cell-based
Staphylococcus aureus [4] = test: Antimicrobial activity against Staphylococcus aureus ATCC 29213 after 18 hrs by broth microdilution method; assay type: functional
Staphylococcus aureus [5] = test: Antimicrobial activity against Staphylococcus aureus ATCC 25923 after 18 hrs by broth microdilution method; assay type: functional
Staphylococcus aureus [6] = test: Antimicrobial activity against methicillin-resistant Staphylococcus aureus 75 after 18 hrs by broth microdilution method; assay type: functional

With CCCCCCCCCC(=O)N[C@@H](CCCNC(=N)N)C(=O)N[C@@H](CCCNC(=N)N)C(=O)N[C@@H](CCCNC(=N)N)C(N)=O (Decanoyl-Arg-Arg-Arg-NH2) the MIC (Staphylococcus aureus [1]) was 128 µM (≈ 81.9 µg/mL), the MIC (Bacillus subtilis) was 32 µM (≈ 20.5 µg/mL) and the MIC [2] was 64 µM (≈ 41 µg/mL). For the same compound, the selectivity ratio [3] was 5.05, the MHC10 (Erythrocyte) was greater than 256 µM and the MIC (Staphylococcus aureus [4]) was 128 µM (≈ 81.9 µg/mL). It also gave an MIC (Staphylococcus aureus [5]) of 128 µM (≈ 81.9 µg/mL) and an MIC (Staphylococcus aureus [6]) of 128 µM (≈ 81.9 µg/mL).

For CCCCCCCCCC(=O)N[C@@H](CCCNC(=N)N)C(=O)N[C@@H](CCCNC(=N)N)C(=O)N[C@@H](Cc1c[nH]c2ccccc12)C(N)=O (Decanoyl-Arg-Arg-Trp-NH2), the MIC (Staphylococcus aureus [1]) was 8 µM (≈ 5.36 µg/mL), the MIC (Bacillus subtilis) was 8 µM (≈ 5.36 µg/mL) and the MIC [2] was 16 µM (≈ 10.7 µg/mL). For the same compound, the selectivity ratio [3] was 32, the MHC10 (Erythrocyte) was greater than 256 µM and the MIC (Staphylococcus aureus [4]) was 16 µM (≈ 10.7 µg/mL). For the same compound, the MIC (Staphylococcus aureus [5]) was 32 µM (≈ 21.4 µg/mL) and the MIC (Staphylococcus aureus [6]) was 16 µM (≈ 10.7 µg/mL).

CCCCCCCCCC(=O)N[C@@H](CCCNC(=N)N)C(=O)N[C@@H](Cc1c[nH]c2ccccc12)C(=O)N[C@@H](CCCNC(=N)N)C(N)=O (Decanoyl-Arg-Trp-Arg-NH2) gave an MIC (Staphylococcus aureus [1]) of 16 µM (≈ 10.7 µg/mL), an MIC (Bacillus subtilis) of 16 µM (≈ 10.7 µg/mL) and an MIC [2] of 16 µM (≈ 10.7 µg/mL). The selectivity ratio [3] was 3.43, the MHC10 (Erythrocyte) was greater than 256 µM and the MIC (Staphylococcus aureus [4]) was 32 µM (≈ 21.4 µg/mL). For the same compound, the MIC (Staphylococcus aureus [5]) was 16 µM (≈ 10.7 µg/mL) and the MIC (Staphylococcus aureus [6]) was 16 µM (≈ 10.7 µg/mL).

With CCCCCCCCCC(=O)N[C@@H](CCCNC(=N)N)C(=O)N[C@@H](Cc1c[nH]c2ccccc12)C(=O)N[C@@H](Cc1c[nH]c2ccccc12)C(N)=O (Decanoyl-Arg-Trp-Trp-NH2) the MIC (Staphylococcus aureus [1]) was 8 µM (≈ 5.6 µg/mL), the MIC (Bacillus subtilis) was 16 µM (≈ 11.2 µg/mL) and the MIC [2] was 32 µM (≈ 22.4 µg/mL). It also gave a selectivity ratio [3] of 27.4, an MHC10 (Erythrocyte) greater than 256 µM and an MIC (Staphylococcus aureus [4]) of 16 µM (≈ 11.2 µg/mL). It also gave an MIC (Staphylococcus aureus [5]) of 32 µM (≈ 22.4 µg/mL) and an MIC (Staphylococcus aureus [6]) of 8 µM (≈ 5.6 µg/mL).

For CCCCCCCCCC(=O)N[C@@H](Cc1c[nH]c2ccccc12)C(=O)N[C@@H](CCCNC(=N)N)C(=O)N[C@@H](CCCNC(=N)N)C(N)=O (Decanoyl-Trp-Arg-Arg-NH2), the MIC (Staphylococcus aureus [1]) was 16 µM (≈ 10.7 µg/mL), the MIC (Bacillus subtilis) was 8 µM (≈ 5.36 µg/mL) and the MIC [2] was 8 µM (≈ 5.36 µg/mL). The selectivity ratio [3] was 21.3, the MHC10 (Erythrocyte) was 256 µM and the MIC (Staphylococcus aureus [4]) was 16 µM (≈ 10.7 µg/mL). For the same compound, the MIC (Staphylococcus aureus [5]) was 8 µM (≈ 5.36 µg/mL) and the MIC (Staphylococcus aureus [6]) was 16 µM (≈ 10.7 µg/mL).

In the case of CCCCCCCCCCCC(=O)N[C@@H](CCCNC(=N)N)C(=O)N[C@@H](CCCNC(=N)N)C(=O)N[C@@H](CCCNC(=N)N)C(N)=O (Lauroyl-Arg-Arg-Arg-NH2), the MIC (Staphylococcus aureus [1]) is reported as 16 µM (≈ 10.7 µg/mL), the MIC (Bacillus subtilis) is reported as 8 µM (≈ 5.34 µg/mL) and the MIC [2] is reported as 16 µM (≈ 10.7 µg/mL). It also gave a selectivity ratio [3] of 25.6, an MHC10 (Erythrocyte) greater than 256 µM and an MIC (Staphylococcus aureus [4]) of 16 µM (≈ 10.7 µg/mL). For the same compound, the MIC (Staphylococcus aureus [5]) was 32 µM (≈ 21.4 µg/mL) and the MIC (Staphylococcus aureus [6]) was 32 µM (≈ 21.4 µg/mL).

CCCCCCCCCCCC(=O)N[C@@H](CCCNC(=N)N)C(=O)N[C@@H](Cc1c[nH]c2ccccc12)C(=O)N[C@@H](CCCNC(=N)N)C(N)=O (Lauroyl-Arg-Trp-Arg-NH2) gave an MIC (Staphylococcus aureus [1]) of 4 µM (≈ 2.79 µg/mL), an MIC (Bacillus subtilis) of 8 µM (≈ 5.58 µg/mL) and an MIC [2] of 8 µM (≈ 5.58 µg/mL). The selectivity ratio [3] was 8, the MHC10 (Erythrocyte) was 64 µM and the MIC (Staphylococcus aureus [4]) was 8 µM (≈ 5.58 µg/mL). It also gave an MIC (Staphylococcus aureus [5]) of 16 µM (≈ 11.2 µg/mL) and an MIC (Staphylococcus aureus [6]) of 4 µM (≈ 2.79 µg/mL).

CCCCCCCCCCCC(=O)N[C@@H](CCCNC(=N)N)C(=O)N[C@@H](Cc1c[nH]c2ccccc12)C(=O)N[C@@H](Cc1c[nH]c2ccccc12)C(N)=O (Lauroyl-Arg-Trp-Trp-NH2) gave an MIC (Staphylococcus aureus [1]) of 8 µM (≈ 5.82 µg/mL), an MIC (Bacillus subtilis) of 64 µM (≈ 46.6 µg/mL) and an MIC [2] of 64 µM (≈ 46.6 µg/mL). For the same compound, the selectivity ratio [3] was 12.8, the MHC10 (Erythrocyte) was greater than 256 µM and the MIC (Staphylococcus aureus [4]) was 64 µM (≈ 46.6 µg/mL). It also gave an MIC (Staphylococcus aureus [5]) of 32 µM (≈ 23.3 µg/mL) and an MIC (Staphylococcus aureus [6]) of 8 µM (≈ 5.82 µg/mL).

CCCCCCCCCCCC(=O)N[C@@H](Cc1c[nH]c2ccccc12)C(=O)N[C@@H](CCCNC(=N)N)C(=O)N[C@@H](CCCNC(=N)N)C(N)=O (Lauroyl-Trp-Arg-Arg-NH2) showed an MIC (Staphylococcus aureus [1]) of 4 µM (≈ 2.79 µg/mL), an MIC (Bacillus subtilis) of 8 µM (≈ 5.58 µg/mL) and an MIC [2] of 8 µM (≈ 5.58 µg/mL). The selectivity ratio [3] was 8.73, the MHC10 (Erythrocyte) was 64 µM and the MIC (Staphylococcus aureus [4]) was 8 µM (≈ 5.58 µg/mL). For the same compound, the MIC (Staphylococcus aureus [5]) was 8 µM (≈ 5.58 µg/mL) and the MIC (Staphylococcus aureus [6]) was 8 µM (≈ 5.58 µg/mL).

With CCCCCCCCCCCCCC(=O)N[C@@H](CCCNC(=N)N)C(=O)N[C@@H](CCCNC(=N)N)C(=O)N[C@@H](CCCNC(=N)N)C(N)=O (Myristoyl-Arg-Arg-Arg-NH2) the MIC (Staphylococcus aureus [1]) was 8 µM (≈ 5.57 µg/mL), the MIC (Bacillus subtilis) was 8 µM (≈ 5.57 µg/mL) and the MIC [2] was 8 µM (≈ 5.57 µg/mL). For the same compound, the selectivity ratio [3] was 6.86, the MHC10 (Erythrocyte) was 128 µM and the MIC (Staphylococcus aureus [4]) was 64 µM (≈ 44.5 µg/mL). It also gave an MIC (Staphylococcus aureus [5]) of 16 µM (≈ 11.1 µg/mL) and an MIC (Staphylococcus aureus [6]) of 8 µM (≈ 5.57 µg/mL).

CCCCCCCCCCCCCC(=O)N[C@@H](CCCNC(=N)N)C(=O)N[C@@H](CCCNC(=N)N)C(=O)N[C@@H](Cc1c[nH]c2ccccc12)C(N)=O (Myristoyl-Arg-Arg-Trp-NH2) showed an MIC (Staphylococcus aureus [1]) of 2 µM (≈ 1.45 µg/mL), an MIC (Bacillus subtilis) of 8 µM (≈ 5.81 µg/mL) and an MIC [2] of 8 µM (≈ 5.81 µg/mL). It also gave a selectivity ratio [3] of 6, an MHC10 (Erythrocyte) of 32 µM and an MIC (Staphylococcus aureus [4]) of 4 µM (≈ 2.9 µg/mL). It also gave an MIC (Staphylococcus aureus [5]) of 8 µM (≈ 5.81 µg/mL) and an MIC (Staphylococcus aureus [6]) of 2 µM (≈ 1.45 µg/mL).

In the case of CCCCCCCCCCCCCC(=O)N[C@@H](CCCNC(=N)N)C(=O)N[C@@H](Cc1c[nH]c2ccccc12)C(=O)N[C@@H](CCCNC(=N)N)C(N)=O (Myristoyl-Arg-Trp-Arg-NH2), the MIC (Staphylococcus aureus [1]) is reported as 4 µM (≈ 2.9 µg/mL), the MIC (Bacillus subtilis) is reported as 8 µM (≈ 5.81 µg/mL) and the MIC [2] is reported as 4 µM (≈ 2.9 µg/mL). The selectivity ratio [3] was 10.7, the MHC10 (Erythrocyte) was 64 µM and the MIC (Staphylococcus aureus [4]) was 8 µM (≈ 5.81 µg/mL). For the same compound, the MIC (Staphylococcus aureus [5]) was 8 µM (≈ 5.81 µg/mL) and the MIC (Staphylococcus aureus [6]) was 4 µM (≈ 2.9 µg/mL).

Reference: ChEMBL document CHEMBL4706653, “Ultra-short lipopeptides against gram-positive bacteria while alleviating antimicrobial resistance” (Eur J Med Chem, 2021)
